Measurements taken from patent publication US6770597B2, “Benzohydrazide derivatives as herbicides and desiccant compositions containing them” (Ishihara Sangyo Kaisha, Ltd., priority 2002, dated 2004).

What was measured:
Assay type in all cases: in vivo
[1] = tested on: field corn (Zea mays L., var. Dekalb 535, CORN); test: Greenhouse herbicide screen, pre-emerge application, crop damage rating; conditions: PRE emergent, 14 days after application, rating scale 0-100
Outline: (§1)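 Greenhouse pot test with soil-applied or foliar track-sprayer treatment at 15–1000 g ai/ha from acetone solution. Injury, from none (0) to total kill (100), was recorded 14 days after application.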

[2] = tested on: upland rice (Oryza sp., var.Cocodrie, RICE); test: as above; conditions: PRE emergent, 14 days after application, rating scale 0-100
Outline: as §1

[3] = tested on: field corn (Zea mays L., var. Dekalb 535, CORN); test: Greenhouse herbicide screen, post-emerge application, crop damage rating; conditions: POST emergent, 14 days after application, scale 0-100
Outline: as §1

[4] = tested on: upland rice (Oryza sp., var.Cocodrie, RICE); test: as above; conditions: POST emergent, 14 days after application, scale 0-100
Outline: as §1

[5] = tested on: green foxtail (Setaria viridis, SETVI); test: Greenhouse herbicide screen, post-emerge application, phytotoxicity rating; conditions: POST emergent, 14 days after application, scale 0-100
Outline: as §1

[6] = tested on: sicklepod (Cassia obtusifolia, CASOB); test: as above; conditions: POST emergent, 14 days after application, scale 0-100
Outline: as §1

[7] = tested on: cocklebur (Xanthium strumarium, XANST); test: as above; conditions: POST emergent, 14 days after application, scale 0-100
Outline: as §1

[8] = tested on: velvetleaf (Abutilon theophrasti, ABUTH); test: as above; conditions: POST emergent, 14 days after application, scale 0-100
Outline: as §1

[9] = tested on: johnsongrass (Sorghum halepense, SORHA); test: as above; conditions: POST emergent, 14 days after application, scale 0-100
Outline: as §1

[10] = tested on: ivyleaf morningglory (Ipomoea hederacea, IPOHE); test: as above; conditions: POST emergent, 14 days after application, scale 0-100
Outline: as §1

[11] = tested on: redroot pigweed (Amaranthus retrofiexus, AMARE); test: as above; conditions: POST emergent, 14 days after application
Outline: as §1

[12] = tested on: large crabgrass (Digitaria sanguinalis, DIGSA); test: as above; conditions: POST emergent, 14 days after application, scale 0-100
Outline: as §1

[13] = tested on: lambsquarters (Chenopodium album, CHEAL); test: as above; conditions: POST emergent, 14 days after application, scale 0-100
Outline: as §1

[14] = tested on: barnyardgrass (Echinochloa crus-galli, ECHCG); test: as above; conditions: POST emergent, 14 days after application, scale 0-100
Outline: as §1

[15] = tested on: common ragweed (Ambrosia artemisiifolia L., AMBEL); test: as above; conditions: POST emergent, 14 days after application, scale 0-100
Outline: as §1

[16] = tested on: green foxtail (Setaria viridis, SETVI); test: Greenhouse herbicide screen, pre-emerge application, phytotoxicity rating; conditions: PRE emergent, 14 days after application, rating scale 0-100
Outline: as §1

[17] = tested on: sicklepod (Cassia obtusifolia, CASOB); test: as above; conditions: PRE emergent, 14 days after application, rating scale 0-100
Outline: as §1

[18] = tested on: cocklebur (Xanthium strumarium, XANST); test: as above; conditions: PRE emergent, 14 days after application, rating scale 0-100
Outline: as §1

[19] = tested on: velvetleaf (Abutilon theophrasti, ABUTH); test: as above; conditions: PRE emergent, 14 days after application, rating scale 0-100
Outline: as §1

[20] = tested on: johnsongrass (Sorghum halepense, SORHA); test: as above; conditions: PRE emergent, 14 days after application, rating scale 0-100
Outline: as §1

[21] = tested on: ivyleaf morningglory (Ipomoea hederacea, IPOHE); test: as above; conditions: PRE emergent, 14 days after application, rating scale 0-100
Outline: as §1

[22] = tested on: redroot pigweed (Amaranthus retrofiexus, AMARE); test: as above; conditions: PRE emergent, 14 days after application, rating scale 0-100
Outline: as §1

[23] = tested on: large crabgrass (Digitaria sanguinalis, DIGSA); test: as above; conditions: PRE emergent, 14 days after application, rating scale 0-100
Outline: as §1

[24] = tested on: lambsquarters (Chenopodium album, CHEAL); test: as above; conditions: PRE emergent, 14 days after application, rating scale 0-100
Outline: as §1

[25] = tested on: barnyardgrass (Echinochloa crus-galli, ECHCG); test: as above; conditions: PRE emergent, 14 days after application, rating scale 0-100
Outline: as §1

[26] = tested on: common ragweed (Ambrosia artemisiifolia L., AMBEL); test: as above; conditions: PRE emergent, 14 days after application, rating scale 0-100
Outline: as §1

[27] = 63 g ai/ha, scale 0-100 (0 no damage, 100 complete death)

CC1CCCC(C)N1N=C(OC(=O)C(Cl)Cl)c1cc(-n2c(=O)cc(C(F)(F)F)n(C)c2=O)c(F)cc1Cl (centres unmarked) [Compound 4-8]
75: phytotoxicity rating CASOB ([6]; 250 g ai/ha) | phytotoxicity rating DIGSA ([12]; 250 g ai/ha)
100: crop damage rating CORN ([3]; 250 g ai/ha) | phytotoxicity rating XANST ([7]; 63 g ai/ha) | phytotoxicity rating XANST ([7]; 250 g ai/ha) | phytotoxicity rating ABUTH ([8]; 63 g ai/ha) | phytotoxicity rating ABUTH ([8]; 250 g ai/ha) | phytotoxicity rating IPOHE ([10]; 63 g ai/ha) | phytotoxicity rating IPOHE ([10]; 250 g ai/ha) | phytotoxicity rating AMARE [11, 27] | phytotoxicity rating AMARE ([11]; 250 g ai/ha, scale 0-100) | phytotoxicity rating CHEAL ([13]; 63 g ai/ha) | phytotoxicity rating CHEAL ([13]; 250 g ai/ha) | phytotoxicity rating AMBEL ([15]; 250 g ai/ha) | phytotoxicity rating SETVI ([16]; 250 g ai/ha) | phytotoxicity rating ABUTH ([19]; 63 g ai/ha) | phytotoxicity rating ABUTH ([19]; 250 g ai/ha) | phytotoxicity rating IPOHE ([21]; 250 g ai/ha) | phytotoxicity rating AMARE ([22]; 63 g ai/ha) | phytotoxicity rating AMARE ([22]; 250 g ai/ha) | phytotoxicity rating CHEAL ([24]; 63 g ai/ha) | phytotoxicity rating CHEAL ([24]; 250 g ai/ha)
95: phytotoxicity rating IPOHE ([21]; 63 g ai/ha)
50: crop damage rating CORN ([1]; 250 g ai/ha) | phytotoxicity rating DIGSA ([23]; 63 g ai/ha)
70: phytotoxicity rating CASOB ([6]; 63 g ai/ha) | phytotoxicity rating ECHCO ([14]; 63 g ai/ha)
10: phytotoxicity rating SORHA ([9]; 63 g ai/ha)
0: crop damage rating CORN ([1]; 63 g ai/ha) | crop damage rating RICE ([2]; 63 g ai/ha) | crop damage rating RICE ([2]; 250 g ai/ha) | crop damage rating RICE ([4]; 63 g ai/ha) | phytotoxicity rating DIGSA ([12]; 63 g ai/ha) | phytotoxicity rating SORHA ([20]; 63 g ai/ha) | phytotoxicity rating ECHCG ([25]; 63 g ai/ha)
65: phytotoxicity rating SORHA ([9]; 250 g ai/ha) | phytotoxicity rating SETVI ([16]; 63 g ai/ha)
90: crop damage rating CORN ([3]; 63 g ai/ha) | phytotoxicity rating ECHCO ([14]; 250 g ai/ha) | phytotoxicity rating CASOB ([17]; 250 g ai/ha)
60: phytotoxicity rating SETVI ([5]; 250 g ai/ha) | phytotoxicity rating CASOB ([17]; 63 g ai/ha) | phytotoxicity rating XANST ([18]; 250 g ai/ha) | phytotoxicity rating AMBEL ([26]; 63 g ai/ha)
99: phytotoxicity rating DIGSA ([23]; 250 g ai/ha) | phytotoxicity rating AMBEL ([26]; 250 g ai/ha)
15: crop damage rating RICE ([4]; 250 g ai/ha) | phytotoxicity rating SETVI ([5]; 63 g ai/ha) | phytotoxicity rating ECHCG ([25]; 250 g ai/ha)
30: phytotoxicity rating XANST ([18]; 63 g ai/ha)
80: phytotoxicity rating AMBEL ([15]; 63 g ai/ha) | phytotoxicity rating SORHA ([20]; 250 g ai/ha)

CC1CCCC(C)N1NC(=O)c1cc(-n2c(=O)cc(C(F)(F)F)n(C)c2=O)c(F)cc1Cl (centres unmarked) [Compound 1-16]
90: phytotoxicity rating SETVI ([5]; 63 g ai/ha) | phytotoxicity rating SETVI ([16]; 63 g ai/ha)
98: crop damage rating RICE ([2]; 250 g ai/ha) | crop damage rating RICE ([4]; 250 g ai/ha) | phytotoxicity rating CASOB ([6]; 63 g ai/ha) | phytotoxicity rating DIGSA ([12]; 250 g ai/ha) | phytotoxicity rating ECHCO ([14]; 250 g ai/ha) | phytotoxicity rating CASOB ([17]; 63 g ai/ha) | phytotoxicity rating DIGSA ([23]; 250 g ai/ha) | phytotoxicity rating ECHCG ([25]; 250 g ai/ha)
30: phytotoxicity rating DIGSA ([12]; 63 g ai/ha) | phytotoxicity rating DIGSA ([23]; 63 g ai/ha)
45: crop damage rating RICE ([2]; 63 g ai/ha) | crop damage rating RICE ([4]; 63 g ai/ha)
35: phytotoxicity rating ECHCO ([14]; 63 g ai/ha) | phytotoxicity rating ECHCG ([25]; 63 g ai/ha)
75: phytotoxicity rating XANST ([7]; 63 g ai/ha) | phytotoxicity rating SORHA ([9]; 63 g ai/ha) | phytotoxicity rating XANST ([18]; 63 g ai/ha) | phytotoxicity rating SORHA ([20]; 63 g ai/ha)
100: crop damage rating CORN ([1]; 63 g ai/ha) | crop damage rating CORN ([1]; 250 g ai/ha) | crop damage rating CORN ([3]; 63 g ai/ha) | crop damage rating CORN ([3]; 250 g ai/ha) | phytotoxicity rating XANST ([7]; 250 g ai/ha) | phytotoxicity rating ABUTH ([8]; 63 g ai/ha) | phytotoxicity rating ABUTH ([8]; 250 g ai/ha) | phytotoxicity rating IPOHE ([10]; 63 g ai/ha) | phytotoxicity rating IPOHE ([10]; 250 g ai/ha) | phytotoxicity rating AMARE [11, 27] | phytotoxicity rating AMARE ([11]; 250 g ai/ha, scale 0-100) | phytotoxicity rating CHEAL ([13]; 63 g ai/ha) | phytotoxicity rating CHEAL ([13]; 250 g ai/ha) | phytotoxicity rating XANST ([18]; 250 g ai/ha) | phytotoxicity rating ABUTH ([19]; 63 g ai/ha) | phytotoxicity rating ABUTH ([19]; 250 g ai/ha) | phytotoxicity rating IPOHE ([21]; 63 g ai/ha) | phytotoxicity rating IPOHE ([21]; 250 g ai/ha) | phytotoxicity rating AMARE ([22]; 63 g ai/ha) | phytotoxicity rating AMARE ([22]; 250 g ai/ha) | phytotoxicity rating CHEAL ([24]; 63 g ai/ha) | phytotoxicity rating CHEAL ([24]; 250 g ai/ha)
99: phytotoxicity rating SETVI ([5]; 250 g ai/ha) | phytotoxicity rating CASOB ([6]; 250 g ai/ha) | phytotoxicity rating SORHA ([9]; 250 g ai/ha) | phytotoxicity rating AMBEL ([15]; 63 g ai/ha) | phytotoxicity rating AMBEL ([15]; 250 g ai/ha) | phytotoxicity rating SETVI ([16]; 250 g ai/ha) | phytotoxicity rating CASOB ([17]; 250 g ai/ha) | phytotoxicity rating SORHA ([20]; 250 g ai/ha) | phytotoxicity rating AMBEL ([26]; 63 g ai/ha) | phytotoxicity rating AMBEL ([26]; 250 g ai/ha)
